Measured values taken from patent US20080194632A1, “Novel Piperidine Derivatives as Chemokine Receptor Modulators Useful for the Treatment of Respiratory Diseases” (ASTRAZENECA AB, priority 2005, published 2008).

Target: T1, human CCR1 (Homo sapiens, UniProt P32246)
T1 construct: expressed in transfected cells; membranes prepared
T1 sequence (P32246 1-355): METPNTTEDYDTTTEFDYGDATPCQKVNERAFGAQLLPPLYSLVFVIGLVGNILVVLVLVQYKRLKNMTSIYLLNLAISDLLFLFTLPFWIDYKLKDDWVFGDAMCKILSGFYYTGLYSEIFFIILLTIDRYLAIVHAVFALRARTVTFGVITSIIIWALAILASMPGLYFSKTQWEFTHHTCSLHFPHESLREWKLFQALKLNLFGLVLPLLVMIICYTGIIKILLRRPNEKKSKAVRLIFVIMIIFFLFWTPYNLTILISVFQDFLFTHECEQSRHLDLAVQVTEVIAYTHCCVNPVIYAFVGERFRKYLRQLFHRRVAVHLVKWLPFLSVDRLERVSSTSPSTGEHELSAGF
Test: Human CCR1 binding assay ([125I] MIP-1α displacement)
Conditions: displacement of 33 pM [125I] MIP-1α from HEK-CCR1 membranes, pH 7.4, 1.5 hrs at room temperature
Protocol: HEK293 cells, from ECACC, stably expressing recombinant human CCR1 (HEK-CCR1) were used to prepare cell membranes containing CCR1. The membranes were stored at −70° C. The concentration of membranes of each batch was adjusted to 10% specific binding of 33 pM [^125I] MIP-1α.
100 μL of HEK-CCR1 membranes diluted in assay buffer pH 7.4 (137 mM NaCl (Merck, Cat No 1.06404), 5.7 mM Glucose (Sigma, Cat No G5400), 2.7 mM KCl (Sigma, Cat No P-9333), 0.36 mM NaH2PO4×H2O (Merck, Cat No 1.06346), 10 mM HEPES (Sigma, Cat No H3375), 0.1% (w/v) Gelatine (Sigma, Cat No G2625)) with the addition of 17500 units/L Bacitracin (Sigma, Cat No B 1025) were added to each well of the 96 well filter plate (0.45 μm opaque Millipore cat no MHVB N4550). 12 μL of compound in assay buffer, containing 10% DMSO, was added to give final compound concentrations of 1×10^−5.5-1×10^−9.5 M. 12 μl cold human recombinant MIP-1α (270-LD-050, R&D Systems, Oxford, UK), 10 nM final concentration in assay buffer supplemented with 10% DMSO, was included in certain wells (without compound) as non-specific binding control (NSB). 12 μl assay buffer with 10% DMSO was added to certain wells (without compound) to detect maximal binding (B0).
12 μL [^125I] MIP-1α, diluted in assay buffer to a final concentration in the wells of 33 pM, was added to all wells. The plates with lid were then incubated for 1.5 hrs at room temperature. After incubation the wells were emptied by vacuum filtration (MultiScreen Resist Vacuum Manifold system, Millipore) and washed once with 200 μl assay buffer. After the wash, all wells received an addition of 50 μL of scintillation fluid (OptiPhase “Supermix”, Wallac Oy, Turko, Finland). Bound [^125I] MIP-1α was measured using a Wallac Trilux 1450 MicroBeta counter. Window settings: Low 5-High 1020, 1-minute counting/well.
The following equation was used to calculate percent displacement.
Percent displacement=1−((cpm test−cpm NSB)/(cpm B0−cpm NSB)) where:
cpm test=average cpm in duplicate wells with membranes and compound and [^125I] MIP-1α cpm; NSB=average cpm in the wells with membranes and MIP-1α and [^125I] MIP-1α (non-specific binding) cpm; B0=average cpm in wells with membranes and assay buffer and [^125I] MIP-1α (maximum binding).
The molar concentration of compound producing 50% displacement (IC50) was derived using the Excel-based program XLfit (version 2.0.9) to fit data to a 4-parameter logistics function.

Compound | IC50 [nM]
CC(=O)Nc1ccc(O)cc1OC[C@@](C)(O)CNC1CCN(Cc2ccc(Cl)cc2)CC1 [Comparison 2] | 3.9
CCC(=O)Nc1ccc(O)cc1OC[C@@](C)(O)CNC1CCN(Cc2ccc(Cl)cc2)CC1 [Comparison 1] | 7
CCC(=O)Nc1ccc(O)cc1OC[C@@H](O)CNC1CCN(Cc2ccc(Cl)cc2)CC1 [Comparison 9] | 13.6
CC(=O)Nc1ccc(O)cc1OC[C@@H](O)CNC1CCN(Cc2ccc(Cl)cc2)CC1 [Comparison 8] | 4.5

Compounds with a lower IC50, results first:

IC50 [nM] | Compound
2.7 | CCC(=O)Nc1cc(Cl)c(O)cc1OC[C@@H](O)CNC1CCN(Cc2ccc(Cl)cc2)CC1 [Example 9, N-{5-Chloro-2-[((2S)-3-{[1-(4-chlorobenzyl)piperidin-4-yl]amino}-2-hydroxylpropyl)oxy]-4-hydroxyphenyl}propaneamide di-trifluoroacetate]
1.6 | CC(=O)Nc1cc(Cl)c(O)cc1OC[C@@H](O)CNC1CCN(Cc2ccc(Cl)cc2)CC1 [Example 8, N-{5-Chloro-2-[((2S)-3-{[1-(4-chlorobenzyl)piperidin-4-yl]amino}-2-hydroxypropyl)oxy]-4-hydroxyphenyl}acetamide di-trifluoroacetate]
0.7 | CC(=O)Nc1cc(Cl)c(O)cc1OC[C@@](C)(O)CNC1CCN(Cc2ccc(Cl)cc2)CC1 [Example 2, N-{5-Chloro-2-[((2S)-3-{[1-(4-chlorobenzyl)piperidin-4-yl]amino}-2-hydroxy-2-methylpropyl)oxy]-4-hydroxyphenyl}acetamide di-trifluoroacetate]
0.4 | CCC(=O)Nc1cc(Cl)c(O)cc1OC[C@@](C)(O)CNC1CCN(Cc2ccc(Cl)cc2)CC1 [Example 1, N-{5-Chloro-2-[((2S)-3-{[1-(4-chlorobenzyl)piperidin-4-yl]amino}-2-hydroxy-2-methylpropyl)oxy]-4-hydroxyphenyl}propaneamide di-trifluoroacetate]
